Source: patent publication US5364861A, “Optical isomers of 7-[3-(1,1-dialkylmethyl-1-amino-1-pyrrolidinyl]-quinolones and naphthyridones as antibacterial agents” (Warner-Lambert Company, priority 1993, dated 1994)
Converted amounts (≈) assume the structure as drawn. Read-outs that look alike come from different tables or passages of the source.

Legend:
Strep. faecalis MGH-2 = test: in vitro antibacterial activity, microtitration dilution (MIC), Strep. faecalis MGH-2; type: cell-based; settings: Enterococcus faecalis, MGH2, read-out: minimum inhibiting concentration (MIC)
Description: (§1) The in vitro antibacterial activity is obtained when tested by the microtitration dilution method as described in Heifetz, et al., Antimicr. Agents & Chemother. 1974;6:124, which is incorporated herein by reference.
(§2) By use of the above methods, the following minimum inhibiting concentration values (MICs in μg/ml), PD50 's in mg/kg, no effect phototoxicity dose in mg/kg and the cytotoxicity IC50 in μg/mL were obtained for representative enantiomers of the invention and compounds of the prior art as shown in the table.

Esch. coli Vogel = test: in vitro antibacterial activity, microtitration dilution (MIC), Esch. coli Vogel; type: cell-based; settings: Escherichia coli, read-out: minimum inhibiting concentration (MIC)
Description: as §1, §2

Strep. pyogenes C-203 [1] = test: in vitro antibacterial activity, microtitration dilution (MIC), Strep. pyogenes C-203; type: cell-based; settings: Streptococcus pyogenes, C203, read-out: minimum inhibiting concentration (MIC)
Description: as §1, §2

Ent. cloacae MA2646 = test: in vitro antibacterial activity, microtitration dilution (MIC), Ent. cloacae MA2646; type: cell-based; settings: Enterobacter cloacae, read-out: minimum inhibiting concentration (MIC)
Description: as §1, §2

Staph. aureus H 228 = test: in vitro antibacterial activity, microtitration dilution (MIC), Staph. aureus H 228; type: cell-based; settings: Staphylococcus aureus, H228, read-out: minimum inhibiting concentration (MIC)
Description: as §1, §2

Pseud. aeruginosa UI-18 = test: in vitro antibacterial activity, microtitration dilution (MIC), Pseud. aeruginosa UI-18; type: cell-based; settings: Pseudomonas aeruginosa, UI18, read-out: minimum inhibiting concentration (MIC)
Description: as §1, §2

Prot. rettgeri M 1771 = test: in vitro antibacterial activity, microtitration dilution (MIC), Prot. rettgeri M 1771; type: cell-based; settings: Providencia rettgeri, M1771, read-out: minimum inhibiting concentration (MIC)
Description: as §1, §2

Klebs. pneumoniae MGH-2 = test: in vitro antibacterial activity, microtitration dilution (MIC), Klebs. pneumoniae MGH-2; type: cell-based; settings: Klebsiella pneumoniae, MGH2, read-out: minimum inhibiting concentration (MIC)
Description: as §1, §2

Strep. pneumoniae SV-1 = test: in vitro antibacterial activity, microtitration dilution (MIC), Strep. pneumoniae SV-1; type: cell-based; settings: Streptococcus pneumoniae, SV1, read-out: minimum inhibiting concentration (MIC)
Description: as §1, §2

Staph. aureus UC-76 = test: in vitro antibacterial activity, microtitration dilution (MIC), Staph. aureus UC-76; type: cell-based; settings: Staphylococcus aureus, UC76, read-out: minimum inhibiting concentration (MIC)
Description: as §1, §2

[2] = cytotoxicity, colony reduction of hamster V-79 cells; type: cell-based; settings: 3 hours treatment, colonies counted after 5 days, read-out: cytotoxicity IC50 (Cytotox)
Description: The cytotoxicity data is obtained using hamster V-79 cells. The cells were suspended in tissue culture medium and grown overnight. Cells were treated with drug for 3 hours, washed free of drug and then replated, and the colonies counted after 5 days. The concentration of drug that reduced colonies by 50% relative to control was recorded.
as §2

Strep. pyogenes C-203 [3] = test: median protective dose in mice given lethal systemic infection, Strep. pyogenes; type: in vivo; settings: Streptococcus pyogenes, C203, Strep. pyogenes, single dose at time of challenge, route not given, read-out: median protective dose (PD50)
Description: The in vivo activity is obtained when the compounds are tested according to the procedure of Miller, et al (Proc. Soc. Exp. Biol. Med. 1944;57:261). The median protective dose (PD50) was determined in mice given lethal systemic infections. Single doses of compound were given at time of challenge.
as §2
The in vivo data as PD50 's are reported below the line of MICs for the same compound.

in vivo = test: in vivo; design: species or system mice; settings: mouse, po
Description: The phototoxicity data is obtained using depilated mice. Compound was administered orally each day for four successive days, followed each day by 3 hours of […] radiation. The mice were examined for any positive signs (redness, erythema) relative to control animals. The no effect dose and the 50% effect dose were determined. By use of the above methods, the following minimum inhibiting concentration values (MICs in μg/ml), PD50 's in mg/kg, no effect phototoxicity dose in mg/kg and the cytotoxicity IC50 in μg/mL were obtained for representative enantiomers of the invention and compounds of the prior art as shown in the table.

Structure (SMILES) | MIC (Strep. faecalis MGH-2) [µg/mL] | MIC (Esch. coli Vogel) [µg/mL] | MIC (Strep. pyogenes C-203 [1]) [µg/mL] | MIC (Ent. cloacae MA2646) [µg/mL] | MIC (Staph. aureus H 228) [µg/mL] | MIC (Pseud. aeruginosa UI-18) [µg/mL] | MIC (Prot. rettgeri M 1771) [µg/mL] | MIC (Klebs. pneumoniae MGH-2) [µg/mL] | MIC (Strep. pneumoniae SV-1) [µg/mL] | MIC (Staph. aureus UC-76) [µg/mL] | CC50 at 3 h [2] [µg/mL] | ED50 (Strep. pyogenes C-203 [3]; first line below the MICs) [mg/kg] | ED50 (Strep. pyogenes C-203 [3]; second line below the MICs) [mg/kg] | NOAEL (in vivo) [mg/kg]
COc1c(N2CC[C@H](C(C)(C)N)C2)c(F)cc2c(=O)c(C(=O)O)cn(C3CC3)c12 [Example 8, (S)-7-[3-(1-Amino-1-methylethyl)-1-pyrrolidinyl]-1-cyclopropyl-6-fluoro-1,4-dihydro-8-methoxy-4-oxo-3-quinolinecarboxylic acid] | 0.05 (≈ 0.124 µM) | 0.2 (≈ 0.496 µM) | 0.025 (≈ 0.062 µM) | 0.2 (≈ 0.496 µM) | 0.05 (≈ 0.124 µM) | 3.1 (≈ 7.68 µM) | 0.8 (≈ 1.98 µM) | 0.4 (≈ 0.991 µM) | 0.025 (≈ 0.062 µM) | 0.013 (≈ 0.0322 µM) | – | – | – | –
CC(C)(N)[C@@H]1CCN(c2cc3c(c(N)c2F)c(=O)c(C(=O)O)cn3C2CC2)C1 [Example 9, (R)-7-[3-(1-Amino-1-methylethyl)-1-pyrrolidinyl]-5-amino-1-cyclopropyl-6-fluoro-1,4-dihydro-4-oxo-3-quinolinecarboxylic acid] | 0.05 (≈ 0.129 µM) | 0.4 (≈ 1.03 µM) | 0.006 (≈ 0.0154 µM) | 0.4 (≈ 1.03 µM) | 0.025 (≈ 0.0644 µM) | 3.1 (≈ 7.98 µM) | 0.8 (≈ 2.06 µM) | 0.8 (≈ 2.06 µM) | 0.006 (≈ 0.0154 µM) | 0.006 (≈ 0.0154 µM) | 13 (≈ 33.5 µM) | 11 | 2 | –
Cc1c(F)c(N2CC[C@@H](C(C)(C)N)C2)cc2c1c(=O)c(C(=O)O)cn2-c1ccc(F)cc1F [Example 10, (R)-7-[3-(1-Amino-1-methylethyl)-1-pyrrolidinyl]-1-(2,4-difluorophenyl)-6-fluoro-1,4-dihydro-5-methyl-4-oxo-3-quinolinecarboxylic acid] | 0.4 (≈ 0.871 µM) | 0.4 (≈ 0.871 µM) | 0.2 (≈ 0.435 µM) | 0.4 (≈ 0.871 µM) | 0.1 (≈ 0.218 µM) | 3.1 (≈ 6.75 µM) | 1.6 (≈ 3.48 µM) | 0.8 (≈ 1.74 µM) | 0.4 (≈ 0.871 µM) | 0.05 (≈ 0.109 µM) | – | – | – | –
Cc1c(F)c(N2CC[C@H](C(C)(C)N)C2)cc2c1c(=O)c(C(=O)O)cn2-c1ccc(F)cc1F [Example 11, S-7-[3-(1-amino-1-methylethyl)-1-pyrrolidinyl]-1-(2,4-difluorophenyl)-6-fluoro-1,4-dihydro-5-methyl-4-oxo-3-quinolinecarboxylic acid] | 0.1 (≈ 0.218 µM) | 0.1 (≈ 0.218 µM) | 0.013 (≈ 0.0283 µM) | 0.1 (≈ 0.218 µM) | 0.025 (≈ 0.0544 µM) | 1.6 (≈ 3.48 µM) | 0.4 (≈ 0.871 µM) | 0.2 (≈ 0.435 µM) | 0.013 (≈ 0.0283 µM) | 0.013 (≈ 0.0283 µM) | – | – | – | –
CC(C)(N)[C@H]1CCN(c2c(F)cc3c(=O)c(C(=O)O)cn(C4CC4)c3c2F)C1 [Example 12, (S)-7-[3-(1-Amino-1-methylethyl)-1-pyrrolidinyl]-1-cyclopropyl-6,8-difluoro-1,4-dihydro-4-oxo-3-quinolinecarboxylic acid] | 0.025 (≈ 0.0639 µM) | 0.1 (≈ 0.255 µM) | 0.006 (≈ 0.0153 µM) | 0.2 (≈ 0.511 µM) | 0.025 (≈ 0.0639 µM) | 1.6 (≈ 4.09 µM) | 0.4 (≈ 1.02 µM) | 0.2 (≈ 0.511 µM) | 0.006 (≈ 0.0153 µM) | ≤ 0.003 | – | 12 | 0.6 | –
CC(C)(N)C1CCN(c2nc3c(cc2F)c(=O)c(C(=O)O)cn3C2CC2)C1 (stereo not shown) [reference compound] | 0.05 (≈ 0.134 µM) | 0.1 (≈ 0.267 µM) | 0.025 (≈ 0.0668 µM) | 0.1 (≈ 0.267 µM) | 0.05 (≈ 0.134 µM) | 1.6 (≈ 4.27 µM) | 0.4 (≈ 1.07 µM) | 0.2 (≈ 0.534 µM) | 0.025 (≈ 0.0668 µM) | 0.013 (≈ 0.0347 µM) | 66 (≈ 176 µM) | – | – | 30
